“And” between values parts separate entries of the source, which are not always exact repeats. Equal entries are not always repeated. Where two headings read alike, the source gives them in different places.
How the values were obtained:
[1] = Blood glucose levels after oral emodin; type: in vivo, mice; design: Blood glucose: unit not given here; settings: 30 mg/kg P.O.; for Blood glucose: ob/ob mice, individual animals
Description: Balb/c mice (male, six weeks) and ob/ob (-/-) mice (male, six weeks) were purchased from the Shanghai SLAC Laboratory Animal Co. Ltd. (Shanghai, China) and maintained in an air-conditioned room at 20–25 °C under a 12 h dark/light cycle and fed certified standard chow and tap water ad libitum. Experiments were conducted in compliance with the Guide for the Care and Use of Laboratory Animals. Mice were orally administered with emodin (3, 10, or 30 mg /kg) and had their blood collected at 0.5, 1, 2, and 4 h after emodin treatment. The samples were subjected to plasma isolation immediately after collection. Plasma samples were tested for DPP4 activity with a DPP4-Glo assay kit (Promega, Beijing, China) according to the manufacturer’s protocol. The experimental protocol was approved by Animal Care and Use Committee of Xiamen University(XM2015030514).
To test the inhibitory activity of emodin on DPP4 in vivo, an animal experiment was conducted by oral administration of emodin (3, 10 and 30 mg/kg, P.O., n = 5) to Balb/c mice, followed by plasma collection at different time points to measure DPP4 activity in the blood. Plasma samples were collected at 0, 0.5, 1, 2 and 4 h after the oral dose of emodin, and plasma DPP4 activity was measured with a DPP4-Glo assay kit. […] The lowest does of emodin (3 mg/kg) decreased plasma DPP4 activity from baseline, although these levels rebounded after 1 h, whereas 10 and 30 mg/kg doses of emodin decreased plasma DPP4 activity and maintained the lower levels until 2 h post-treatment (Fig. 4). This dose-dependent manner is probably due to the pharmacokinetics of emodin, and 10 and 30 mg/kg have maximized the pharmacokinetic coverage, while 3 mg/kg emodin is only sufficient to maintain 1 h DPP4 inhibition in vivo. In the subsequent experiment, emodin (30 mg/kg, P.O.) was administered on Balb/C mice (n = 5) or ob/ob (-/-) mice (n = 5). The DPP4 activity, blood glucoselevels and GLP-1 activity were tested 0, 1, 2, 4, 8 h after administration. […] This downregulation maintained 2 h in Balb/C mice, and 4 h in ob/ob (-/-) mice, which rebounded afterwards (Fig. 5A). […] Plasma GLP-1 activity was also measured.

DPP9 = biological target: T1, DPP9 (Homo sapiens, UniProt Q86TI2); test: DPP9 activity assay (BPS Bioscience kit); type: biochemical; settings: 100 µM, Well #1-#3;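 on DPP9 assay, Emission (450 nm): 20 ng DPP9 per 100 µl reaction with DPP substrate 1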
T1 construct: purchased BPS Bioscience 800209

plasma DPP4 activity = biological target: T2, plasma DPP4 activity (Mus musculus, UniProt P28843); test: Plasma DPP4 activity after oral emodin (DPP4-Glo assay kit); type: in vivo, mice; settings: for plasma DPP4 activity, raw signal / DPP4 activity, raw signal: individual animals; for DPP4 activity, raw signal: C57BL/6 (head)
T2 construct: followed by plasma collection at different time points to measure DPP4 activity in the blood; from tissue; host or cells: mouse plasma (Balb/c and ob/ob mice)

[2] = Blood glucose levels after oral emodin; type: in vivo, mice; design: unit not given here; settings: 30 mg/kg P.O., C57BL/6 (head), individual animals
GLP-1 = test: Plasma GLP-1 activity after oral emodin; type: in vivo, mice; design: unit not given here; settings: 30 mg/kg P.O., C57BL/6 (head), individual animals
DPP4 = DPP4 (Homo sapiens, UniProt P27487); test: DPP4 activity assay (DPP4 inhibitor screening assay kit, Cayman); type: biochemical; design: purchased Cayman Chemical, Ann Arbor, MI, USA; settings: for remaining activity at 10 µM: control mean 100.0;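 on all read-outs here: fluorescence read at excitation 360 nm and emission 460 nm after the enzyme reaction ran 30 min at 37 °C in a 96-well plate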
Sequence of DPP4 (P27487 whole entry): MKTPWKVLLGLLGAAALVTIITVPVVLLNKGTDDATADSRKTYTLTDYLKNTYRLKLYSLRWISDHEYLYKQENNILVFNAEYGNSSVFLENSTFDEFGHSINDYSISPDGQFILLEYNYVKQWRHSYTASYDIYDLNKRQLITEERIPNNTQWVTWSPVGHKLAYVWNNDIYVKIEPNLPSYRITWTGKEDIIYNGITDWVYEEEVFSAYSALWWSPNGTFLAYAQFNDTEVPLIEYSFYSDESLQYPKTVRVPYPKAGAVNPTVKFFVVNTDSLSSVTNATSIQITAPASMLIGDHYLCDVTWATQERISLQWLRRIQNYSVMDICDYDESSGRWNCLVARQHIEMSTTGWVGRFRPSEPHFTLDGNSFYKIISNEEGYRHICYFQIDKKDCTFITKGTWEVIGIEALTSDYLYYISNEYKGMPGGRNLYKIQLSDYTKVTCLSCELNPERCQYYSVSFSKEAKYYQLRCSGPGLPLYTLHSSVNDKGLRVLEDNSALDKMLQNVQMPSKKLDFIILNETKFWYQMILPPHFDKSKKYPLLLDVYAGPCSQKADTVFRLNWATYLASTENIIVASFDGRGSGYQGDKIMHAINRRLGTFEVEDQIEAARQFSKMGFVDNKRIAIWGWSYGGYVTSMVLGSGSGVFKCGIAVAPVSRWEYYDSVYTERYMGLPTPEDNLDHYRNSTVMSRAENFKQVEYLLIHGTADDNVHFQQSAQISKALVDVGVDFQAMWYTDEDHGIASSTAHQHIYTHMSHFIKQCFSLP

T1 sequence (Q86TI2 whole entry): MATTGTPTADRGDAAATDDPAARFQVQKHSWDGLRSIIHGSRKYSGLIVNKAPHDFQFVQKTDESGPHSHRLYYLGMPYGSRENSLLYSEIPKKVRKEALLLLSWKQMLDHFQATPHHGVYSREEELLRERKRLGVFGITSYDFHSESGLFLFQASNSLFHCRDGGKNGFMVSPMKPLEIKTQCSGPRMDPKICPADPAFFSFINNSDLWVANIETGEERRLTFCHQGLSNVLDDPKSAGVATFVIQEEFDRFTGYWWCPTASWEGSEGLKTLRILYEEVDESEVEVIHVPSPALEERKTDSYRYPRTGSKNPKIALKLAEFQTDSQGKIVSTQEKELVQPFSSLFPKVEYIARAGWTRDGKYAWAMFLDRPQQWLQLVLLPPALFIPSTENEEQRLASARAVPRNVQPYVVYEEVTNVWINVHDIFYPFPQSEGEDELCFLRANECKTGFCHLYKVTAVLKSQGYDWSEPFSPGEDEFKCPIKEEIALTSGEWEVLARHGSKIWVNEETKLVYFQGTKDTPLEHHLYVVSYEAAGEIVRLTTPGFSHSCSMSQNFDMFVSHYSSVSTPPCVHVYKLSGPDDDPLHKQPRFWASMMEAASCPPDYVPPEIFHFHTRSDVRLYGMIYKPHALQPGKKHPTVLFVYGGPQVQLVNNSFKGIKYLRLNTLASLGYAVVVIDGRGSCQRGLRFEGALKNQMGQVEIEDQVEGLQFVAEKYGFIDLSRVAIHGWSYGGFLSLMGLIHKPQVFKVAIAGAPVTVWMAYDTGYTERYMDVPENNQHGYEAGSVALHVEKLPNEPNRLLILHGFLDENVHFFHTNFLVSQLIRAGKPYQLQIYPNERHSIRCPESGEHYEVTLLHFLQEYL
T2 sequence (P28843 37-760 limits assumed): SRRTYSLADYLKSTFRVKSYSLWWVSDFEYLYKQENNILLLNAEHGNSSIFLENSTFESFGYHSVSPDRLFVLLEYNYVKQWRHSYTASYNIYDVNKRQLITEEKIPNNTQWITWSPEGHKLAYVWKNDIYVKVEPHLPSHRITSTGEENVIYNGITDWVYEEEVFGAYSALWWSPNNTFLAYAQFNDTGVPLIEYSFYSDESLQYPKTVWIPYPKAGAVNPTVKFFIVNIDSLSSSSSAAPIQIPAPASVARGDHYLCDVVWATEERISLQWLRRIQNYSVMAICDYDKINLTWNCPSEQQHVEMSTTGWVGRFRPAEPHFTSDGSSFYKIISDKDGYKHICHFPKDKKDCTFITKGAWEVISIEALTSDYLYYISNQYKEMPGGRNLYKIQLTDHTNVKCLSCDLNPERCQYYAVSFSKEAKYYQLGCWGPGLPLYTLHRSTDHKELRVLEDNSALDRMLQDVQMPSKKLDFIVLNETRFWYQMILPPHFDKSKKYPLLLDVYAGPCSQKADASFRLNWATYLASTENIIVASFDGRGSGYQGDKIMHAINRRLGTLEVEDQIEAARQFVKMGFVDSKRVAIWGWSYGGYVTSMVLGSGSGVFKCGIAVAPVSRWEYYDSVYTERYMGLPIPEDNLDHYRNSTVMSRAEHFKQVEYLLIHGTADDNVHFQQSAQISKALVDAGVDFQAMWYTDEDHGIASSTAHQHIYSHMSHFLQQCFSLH

In the case of `Cc1cc(O)c2c(c1)C(=O)c1cc(O)cc(O)c1C2=O` [Emodin], the “effect on blood glucose levels from baseline” value ([1]; both Balb/C mice and ob/ob (-/-) mice) is reported as “significantly downregulated”, the “time for which downregulation of blood glucose was maintained” value ([1]; both Balb/C mice and ob/ob (-/-) mice, baseline again at 8 h) is reported as 4 h and the Blood glucose ([1]; 0 hours (baseline)) is reported as 18.6 and 13.3 and 11.5 and 12.1 and 14.4. For the same molecule, the Blood glucose ([1]; 1 hours) was 9.4 and 11.3 and 13.1 and 10.9 and 12, the Blood glucose ([1]; 2 hours) was 11 and 9.2 and 8.1 and 9.5 and 10.9 and the Blood glucose ([1]; 4 hours) was 8 and 10.3 and 8.2 and 7.3 and 9.2. The Blood glucose ([1]; 8 hours) was 14.7 and 14.2 and 13.9 and 12.8 and 13.1, the “DPP9 assay, Emission (450 nm)” value (DPP9) was 47887 and 46825 and 46023 and the DPP9 activity (DPP9; DMSO = Ctrl) was 98.3 % of Ctrl and 96.1 % of Ctrl and 94.5 % of Ctrl. For the same molecule, the “time for which plasma DPP4 activity stayed decreased” value (plasma DPP4 activity; 3 mg/kg P.O., Balb/c mice, rebounded afterwards) was 1 h, the “plasma DPP4 activity, raw signal” value (plasma DPP4 activity; 3 mg/kg P.O., time 0 h (baseline), Balb/c mice) was 200500 and 223040 and 210853 and the “plasma DPP4 activity, raw signal” value (plasma DPP4 activity; 3 mg/kg P.O., time 0.5 h, Balb/c mice) was 157120 and 186480 and 184560. For the same molecule, the “plasma DPP4 activity, raw signal” value (plasma DPP4 activity; 3 mg/kg P.O., time 2 h, Balb/c mice) was 291827 and 237493 and 317253, the “plasma DPP4 activity, raw signal” value (plasma DPP4 activity; 3 mg/kg P.O., time 4 h, Balb/c mice) was 377573 and 331360 and 321880 and the “plasma DPP4 activity, raw signal” value (plasma DPP4 activity; 10 mg/kg P.O., time 0 h (baseline), Balb/c mice) was 349733 and 267840 and 314147. For the same molecule, the “plasma DPP4 activity, raw signal” value (plasma DPP4 activity; 10 mg/kg P.O., time 1 h, Balb/c mice) was 158860 and 133520 and 164280, the “plasma DPP4 activity, raw signal” value (plasma DPP4 activity; 10 mg/kg P.O., time 2 h, Balb/c mice) was 158760 and 116813 and 222440 and the “plasma DPP4 activity, raw signal” value (plasma DPP4 activity; 10 mg/kg P.O., time 4 h, Balb/c mice) was 367160 and 355600 and 350787. The “time for which downregulation of DPP4 activity was maintained” value (plasma DPP4 activity; 30 mg/kg P.O., Balb/C mice, n = 5) was 2 h, the “DPP4 activity, raw signal” value (plasma DPP4 activity; 30 mg/kg P.O., 0 hours (baseline)) was 2962300 and 3555100 and 2704100 and 2803100 and 3111100 and the “DPP4 activity, raw signal” value (plasma DPP4 activity; 30 mg/kg P.O., 1 hours) was 2755900 and 3040800 and 2268700 and 2388700 and 2836800. The “DPP4 activity, raw signal” value (plasma DPP4 activity; 30 mg/kg P.O., 2 hours) was 3055900 and 3015200 and 2510000 and 2257000 and 2971200, the “DPP4 activity, raw signal” value (plasma DPP4 activity; 30 mg/kg P.O., 4 hours) was 2708000 and 3031400 and 2814800 and 2664500 and 2844400 and the “DPP4 activity, raw signal” value (plasma DPP4 activity; 30 mg/kg P.O., 8 hours) was 3130600 and 3310000 and 2020300 and 3224400 and 3166700. For the same molecule, the “effect on DPP4 activity” value (plasma DPP4 activity; 30 mg/kg P.O., both Balb/C mice and ob/ob (-/-) mice) was “significant downregulation”, the “time for which downregulation of DPP4 activity was maintained” value (plasma DPP4 activity; 30 mg/kg P.O., ob/ob (-/-) mice, n = 5) was 4 h and the “plasma DPP4 activity, raw signal” value (plasma DPP4 activity; 30 mg/kg P.O., time 0 h (baseline), Balb/c mice) was 290800 and 216573 and 224480. For the same molecule, the “plasma DPP4 activity, raw signal” value (plasma DPP4 activity; 30 mg/kg P.O., time 0.5 h, Balb/c mice) was 175387 and 222147 and 170307, the “plasma DPP4 activity, raw signal” value (plasma DPP4 activity; 30 mg/kg P.O., time 1 h, Balb/c mice) was 159040 and 152000 and 181707 and the “effect on plasma DPP4 activity” value (plasma DPP4 activity; 3, 10 and 30 mg/kg, P.O., Balb/c mice, n = 5) was “decreased the plasma DPP4 activity in a dose-dependent manner”. For the same molecule, the “time until which lower plasma DPP4 activity was maintained” value (plasma DPP4 activity; 10 and 30 mg/kg P.O., Balb/c mice) was 2 h, the Blood glucose ([2]; 0 hours (baseline)) was 15.5 and 10.4 and 10.9 (2×) and 11.2 and the Blood glucose ([2]; 1 hours) was 10.8 (2×) and 12.2 and 9.3 and 9.7. The Blood glucose ([2]; 2 hours) was 9.3 and 9.7 and 8.4 and 8.3 and 8, the Blood glucose ([2]; 4 hours) was 8.3 and 7.4 and 7.6 and 9.1 and 7.9 and the Blood glucose ([2]; 8 hours) was 15.9 and 11.5 and 12.6 (2×) and 15.3. For the same molecule, the GLP-1 (GLP-1; 0 hours (baseline)) was 2.4022 and 3.1852 and 3.2635 and 2.9242 and 1.0711, the GLP-1 (GLP-1; 1 hours) was 2.5849 and 2.8981 and 2.4805 and 2.9503 and 0.9928 and the GLP-1 (GLP-1; 2 hours) was 2.6371 and 2.5849 and 2.9242 and 1.3843 and 2.0629. For the same molecule, the GLP-1 (GLP-1; 4 hours) was 2.6893 and 3.1069 and 3.0808 and 3.2113 and 0.4708, the GLP-1 (GLP-1; 8 hours) was 1.9063 and 3.394 and 3.3157 and 2.0107 and 0.2881 and the inhibition at 10 µM (DPP4; 10 µM, library screen) was greater than 50%. The remaining activity at 10 µM (DPP4; 0.5 h, 10 µM, Figure 1A raw data, read-out: DPP4 activity in library screen, Exp 1) was 22%, the remaining activity at 10 µM (DPP4; 0.5 h, 10 µM, Figure 1A raw data, read-out: DPP4 activity in library screen, Exp 2) was 22.6% and the remaining activity at 10 µM (DPP4; 0.5 h, 10 µM, Figure 1A raw data, read-out: DPP4 activity in library screen, Exp 3) was 41.2%. The remaining activity at 10 µM (DPP4; 0.5 h, 10 µM, mean of Exp 1-3, read-out: DPP4 activity in library screen, Mean) was 28.6%, the remaining activity at 0.39 µM (DPP4; 0.5 h, Emodin 0.39 μM, Exp 1-4) was 100% and the remaining activity at 0.78125 µM (DPP4; 0.5 h, Emodin 0.78125 μM, Exp 1-4) was 104%. The remaining activity at 1.5625 µM (DPP4; 0.5 h, Emodin 1.5625 μM, Exp 1-4) was 97.8%, the remaining activity at 3.125 µM (DPP4; 0.5 h, Emodin 3.125 μM, Exp 1-4) was 83.5% and the remaining activity at 12.5 µM (DPP4; 0.5 h, Emodin 12.5 μM, Exp 1-4) was 37%. The remaining activity at 25 µM (DPP4; 0.5 h, Emodin 25 μM, Exp 1-4) was 25.1%, the remaining activity at 100 µM (DPP4; 0.5 h, Emodin 100 μM, Exp 1-4) was 3.77% and the Ki (DPP4; DPP4, means ± SE) was 0.85 ± 0.06 µM. For the same molecule, the IC50 (DPP4; in vitro, means ± SE, read-out: IC50 of DPP4 Inhibition) was 5.7 µM and 5.76 µM.
